Row | melting point [°C] | SMILES
1 | 77 to 78 | O=S(=O)(c1ccc(N2CCNCC2)cc1)n1ccc2cc(F)ccc21 [Compound 1, 5-Fluoro-1-(4-piperazin-1-yl-benzenesulfonyl)-1H-indole]
2 | 246 to 248.5 | O=S(=O)(c1ccc(N2CCNCC2)cc1)c1cc2ccccc2[nH]1 [Compound 39, 2-(4-Piperazin-1-yl-benzenesulfonyl)-1H-indole]

— patent publication US7022708B2, “4-piperazinyl benzenesulfonyl indoles and uses thereof” (Roche Palo Alto LLC, priority 2002, dated 2006)
